Assay results reported in ChEMBL document CHEMBL3526110, “Preclinical evaluation of the metabolism and disposition of RRx-001, a novel investigative anticancer agent” (Drug Metab Dispos, 2012).

Assays:
Blood [1] = assay: Retention time in rat whole blood in presence of 0.1% formic acid in acetonitrile at 20 uM by LC-MS/MS method; assay type: ADME, tissue-based
Blood [2] = assay: Retention time in human whole blood in presence of 0.1% formic acid in water at 20 uM by LC-MS/MS method; assay type: ADME, tissue-based
Blood [3] = assay: Drug metabolism in rat whole blood treated with 20 uM RRx-001 assessed as compound formation by LC-MS/MS method; assay type: ADME, tissue-based
Blood [4] = assay: Drug metabolism in human whole blood treated with 20 uM RRx-001 assessed as compound formation by LC-MS/MS method; assay type: ADME, tissue-based
Blood [5] = assay: Retention time in rat whole blood in presence of 0.1% formic acid in water at 20 uM by LC-MS/MS method; assay type: ADME, tissue-based
Blood [6] = assay: Retention time in human whole blood in presence of 0.1% formic acid in acetonitrile at 20 uM by LC-MS/MS method; assay type: ADME, tissue-based
[7] = Drug level assessed as compound formation from RRx-001 after 1 hr in presence of reduced GSH at pH 7.8 by LC-MS/MS method; assay type: physicochemical; details: pH 7.8, 1 h

SMILES	Retention_time (Blood [1])	Retention_time (Blood [2])	Drug metabolism (Blood [3])	Drug metabolism (Blood [4])	Retention_time (Blood [5])	Retention_time (Blood [6])	Drug metabolism [7]
N[C@@H](CSCC(=O)N1CC([N+](=O)[O-])C1)C(=O)O	4.3 min	4.7 min	metabolite_detected	metabolite_detected	4.7 min	4.3 min	
N[C@@H](CSCC(=O)N1CC([N+](=O)[O-])([N+](=O)[O-])C1)C(=O)O	7.6 min	7.8 min	metabolite_detected	metabolite_detected	7.8 min	7.6 min	metabolite_detected
